Test results as given in patent US20110288011A1, “PEPTIDE THERAPEUTIC CONJUGATES AND USES THEREOF” (priority 2008, published 2011).
Entries after “also recorded” stand apart in the source; their conditions may differ. Square brackets hold non-standard residues; d marks the D form. Ends that are not written are not given here. Peptide text beside a SMILES is read from it. pGlu = O=C1CC[C@@H](C(=O)O)N1

Key:
NTSR1 = NTSR1 (Homo sapiens, UniProt P30989); test: biochemical
mice [1] = test: Body temperature (hypothermia induction) in mice; type: in vivo; conditions: for Δ Max temp: mouse, in vivo
Procedure: We also tested whether higher doses of the conjugate would results in greater induction of hypothermia.
At this time, the infusion was increased to 40 mg/kg/hr.

mice brains = test: In situ brain perfusion of iodinated NT and NT-An2; type: in vivo
Excerpt: Following iodination, mice brains were perfused in the carotid artery with either [^125I]-NT or the [^125I]-NT-An2 derivative in Krebs buffer for the indicated times. After the indicated times, brains were further perfused for 30 sec to washout the excess of both compound. Both [^125I]-NT or [^125I]-NT-An2 derivative in brain were quantified using a […]. Results are expressed in terms of brain volume of distribution (ml/100 g) as a function of time.
Brain capillary depletion was performed using Dextran following standard procedures. Both [^125I]-NT or [^125I]-NT-An2 derivative present in brain, capillaries, and parenchyma were quantified and volume of distribution (ml/100 g/2 min) is reported.
To confirm that the NT-An2 conjugate crosses the BBB, both NT and the conjugate were iodinated using standard procedures, and in situ brain perfusion was performed using methods standard in the art. The initial transport was measured as a function of time (FIG. 42). […] Higher levels of NT-An2 were found in the brain parenchyma when compared to NT.

mice [2] = test: Hot plate test (analgesia) in mice; conditions: 15 minutes following injection, NT-An2 20 mg/kg, buprenorphine 1 mg/kg
rats = test: Body temperature (sustained hypothermia) in rats; type: in vivo
Procedure: A similar experiment was performed in rats.
A similar experiment was conducted in rats.
A further experiment, conducted over a 12-hour period, was also performed in rats.

blood-brain barrier = conditions: mouse, in vivo
DIO mice = test: Glycemia in DIO mice after bolus injection; type: in vivo, mouse; conditions: vs control
Procedure: We also tested the ability of the exendin-4-Angiopep-2 dimer conjugate to reduce glycemia in DIO mice. Mice were injected with a bolus containing a control, exendin-4, or the exendin-4-Angiopep-2 dimer conjugate.

mouse brain = conditions: in vivo
Procedure: To measure brain uptake of the exendin-4/Angiopep-2 conjugates, we used an in situ perfusion assay. […] Briefly, the right common carotid artery of mice anesthetized with ketamine/xylazine (140/8 mg/kg i.p.) was exposed and ligated at the level of the bifurcation of the common carotid, rostral to the occipital artery. The common carotid was then catheterized rostrally with polyethylene tubing filled with heparin (25 U/ml) and mounted on a 26-gauge needle. […] Prior to the perfusion, the contralateral blood flow contribution was eliminated by severing the heart ventricles. […] Mice were then decapitated to terminate perfusion and the right hemisphere was isolated on ice before being subjected to capillary depletion. Aliquots of homogenates, supernatants, pellets, and perfusates were taken to measure their contents and to evaluate the apparent volume of distribution.

ob/ob mice = test: Treatment of obese (ob/ob) mice with Exen-An2: body weight, food intake, glycemia; type: in vivo, mouse; conditions: higher doses (exendin-4 30 μg/kg, Exen-An2 48 μg/kg), vs control
Procedure: The body weight of each mouse was measured daily. Food intake was estimated based on the mean values for each group, and glycemia was measured one hour following treatment.

Sequence of NTSR1 (P30989 whole entry): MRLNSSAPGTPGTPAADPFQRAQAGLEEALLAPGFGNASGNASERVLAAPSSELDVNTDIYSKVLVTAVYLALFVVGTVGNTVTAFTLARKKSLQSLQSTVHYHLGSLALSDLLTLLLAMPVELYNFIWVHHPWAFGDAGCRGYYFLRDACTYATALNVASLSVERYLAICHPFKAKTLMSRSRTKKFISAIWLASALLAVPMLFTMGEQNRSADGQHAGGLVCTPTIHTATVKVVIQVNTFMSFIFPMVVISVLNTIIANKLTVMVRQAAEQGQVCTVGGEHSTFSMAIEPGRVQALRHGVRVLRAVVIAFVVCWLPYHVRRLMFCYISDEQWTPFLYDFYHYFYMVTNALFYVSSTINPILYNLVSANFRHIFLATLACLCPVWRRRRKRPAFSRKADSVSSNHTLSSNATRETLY

Work on `CC[C@H](C)[C@H](NC(=O)[C@H](Cc1ccc(O)cc1)NC(=O)[C@@H]1CCCN1C(=O)[C@H](CCCNC(=N)N)NC(=O)[C@H](CCCNC(=N)N)NC(=O)[C@H](CCCCN)NC(=O)[C@@H]1CCC(=O)N1)C(=O)N[C@@H](CC(C)C)C(=O)O` [pGlu-Lys-NT(8-13)] ([pGlu]KRRPYIL-OH; C-terminus assumed) yielded an IC50 (NTSR1) of 1.3 nM.

“NT-An2: Neurotensin Angiopep-2-Cys amide conjugate via EMCS/MHA linker; different production batches” was tested, and the “reduction in body temperature” value (mice [1]; mice, 5, 15, or 20 mg/kg, monitored for 120 minutes) was “Small differences between these higher doses”, the body temperature (mice [1]; mice, i.v. bolus 20 mg/kg then 20 mg/kg/hr for 2.5 hours, then 40 mg/kg/hr, 360 minute time course) was “reduction in body temperature” and the “effect on body temperature” value (mice [1]; mice, i.v. bolus, monitored 120 minutes, conjugates compared with control) was “greatest reduction in body temperature; also recorded: larger effect”. For the same molecule, the body temperature (mice [1]; mice, intravenous, NT 1 mg/kg or equivalent dose of conjugate (2.5 mg/kg)) was “rapid decrease in the body temperature”, the body temperature (mice [1]; mice, intravenous, NT-An2 5 mg/kg) was “stronger decrease in body temperature” and the “Δ Max temp” value (mice [1]; listed as ANG-NT (prep #1)) was −4 to −5 °C. For the same molecule, the “Δ Max temp” value (mice [1]; listed as ANG-NT (prep #2)) was −4 to −5 °C, the “Δ Max temp” value (mice [1]; listed as ANG-NT (prep #3)) was −3 to −4 °C and the “Δ Max temp” value (mice [1]; listed as ANG-NT (prep #4)) was −2 to −4 °C. The “trapping in the brain capillaries” value (mice brains; 2 min in situ perfusion, capillary depletion) was “not trapped in the brain capillaries”, the “levels in the brain parenchyma” value (mice brains; 2 min in situ perfusion, capillary depletion, compared to NT) was “Higher levels” and the initial brain uptake (mice brains; in situ brain perfusion, as a function of time, iodinated compounds) was “higher than for the unconjugated NT”. For the same molecule, the “latency of foot licking behavior (hot plate)” value (mice [2]) was “increased the latency of foot licking behavior in a statistically significant manner”, the body temperature (rats; 40 mg/kg i.v. bolus followed by infusion, 12-hour period, 40 mg/kg) was “sustained reduction in body temperature; also recorded: prolonged reduction of body temperature” and the body temperature (rats; i.v. 20 mg/kg then 20 mg/kg/hr infusion, 360-minute time course) was “sustained reduction in body temperature”. The maximal temperature drop (rats; i.v. bolus 20 mg/kg then 20 mg/kg/hr for […], after 90 minutes) was “about 3.5 °C”.

For “leptin(116-130) (SCHLPWASGLETLDS-NH2; UniProt P41159 116-130, looked up, fragment) [leptin116-130]”, the “transport across the BBB” value (blood-brain barrier) was “reduced as compared to in lean mice”.

In the case of exendin-4, the glycemia (DIO mice) is reported as “reduced glycemia”, the brain distribution (mouse brain) is reported as 0.2 ml/100 g/2 min and the body weight gain (ob/ob mice; after 10 days of daily treatment) is reported as “lower than the control; also recorded: reduce weight gain”. The food intake (ob/ob mice) was “reduced; also recorded: reduce food intake”.

Work on `CC[C@H](C)[C@H](NC(=O)[C@@H](Cc1ccc(O)cc1)NC(=O)[C@@H]1CCCN1C(=O)[C@H](CCCNC(=N)N)NC(=O)[C@H](CCCNC(=N)N)NC(=O)[C@H](CCCCN)NC(C)=O)C(=O)N[C@@H](CC(C)C)C(=O)O` [AcLysNT(8-13)D-tyr11, Ac-KRRPD-YIL-OH] (Ac-KRRP[dY]IL-OH) yielded an IC50 (NTSR1) of 5390 nM.
